# Results from patent EP1383793B1 (priority 2000, dated 2001).
# Residues, ends and D or L forms follow the SMILES beside them. No end group written: not given here. *: point of attachment. Biotin = O=C1N[C@H]2[C@H](CS[C@H]2CCCCC(=O)*)N1
# Test system: adipocytes
# Experiment: 3H-glucose uptake into adipocytes (fat cell assay, FFC)
# Assay type: cell-based, Mouse
# Parameters: key to FFC: 0 is no effect; + is agonist; - is antagonist
# Conditions: not given
row,Compound,FFC
1,CC(C)[C@@H](NC(=O)[C@@H](Cc1ccccc1)NC(=O)[C@@H](Cc1c[nH]c2ccccc12)NC(=O)[C@@H](CC(=O)O)NC(=O)[C@@H](Cc1ccc(O)cc1)NC(=O)[C@@H](Cc1ccccc1)NC(=O)[C@@H](CC(N)=O)NC(=O)[C@@H](CCC(=O)O)NC(=O)[C@@H](Cc1c[nH]cn1)NC(=O)[C@H](N)Cc1ccccc1)C(=O)N[C@H](CCCNC(=N)N)C(=O)N[C@H](CCC(N)=O)C(=O)N[C@@H](C(=O)N[C@H](CO)C(=O)N[C@H](CCCCN)C(=O)N[C@H](CCCCN)C(=O)O)C(C)C [Clone S114],0
2,CC[C@H](C)[C@H](NC(=O)[C@H](C)NC(=O)[C@H](CC(N)=O)NC(=O)[C@H](Cc1ccc(O)cc1)NC(=O)[C@H](Cc1ccccc1)NC(=O)CNC(=O)[C@H](CC(=O)O)NC(=O)[C@@H](N)CO)C(=O)N[C@@H](CCC(=O)O)C(=O)N[C@@H](CC(C)C)C(=O)N[C@@H](CC(C)C)C(=O)N[C@@H](CO)C(=O)O [Clone S118],+
3,CC(C)C[C@H](NC(=O)CNC(=O)[C@H](CCC(N)=O)NC(=O)[C@H](Cc1ccccc1)NC(=O)[C@H](Cc1ccc(O)cc1)NC(=O)[C@H](CO)NC(=O)[C@H](Cc1ccc(O)cc1)NC(=O)[C@H](Cc1ccccc1)NC(=O)[C@H](CC(=O)O)NC(=O)[C@H](CO)NC(=O)[C@@H](N)Cc1c[nH]c2ccccc12)C(=O)N[C@@H](CC(=O)O)C(=O)O [Clone S127],0
4,CC(C)[C@H](NC(=O)[C@H](Cc1ccccc1)NC(=O)[C@H](Cc1c[nH]c2ccccc12)NC(=O)[C@H](CC(=O)O)NC(=O)[C@H](Cc1ccc(O)cc1)NC(=O)[C@H](Cc1ccccc1)NC(=O)[C@H](CC(N)=O)NC(=O)[C@H](CCC(=O)O)NC(=O)[C@H](Cc1c[nH]cn1)NC(=O)[C@@H](N)Cc1ccccc1)C(=O)N[C@@H](CCCNC(=N)N)C(=O)N[C@@H](CCC(N)=O)C(=O)N[C@H](C(=O)N[C@@H](CO)C(=O)N[C@@H](CCCCN)C(=O)N[C@@H](CCCCN)C(=O)N[C@@H](CNC(=O)CON)C(N)=O)C(C)C [Clone S131],+
5,CC(C)[C@H](NC(=O)[C@H](Cc1ccccc1)NC(=O)[C@H](Cc1c[nH]c2ccccc12)NC(=O)CNC(=O)[C@H](Cc1ccc(O)cc1)NC(=O)[C@H](Cc1ccccc1)NC(=O)[C@H](CC(N)=O)NC(=O)[C@H](CCC(=O)O)NC(=O)[C@@H](N)Cc1c[nH]cn1)C(=O)N[C@@H](CCCNC(=N)N)C(=O)N[C@@H](CCC(N)=O)C(=O)N[C@H](C(=O)N[C@@H](CO)C(=O)N[C@@H](CCCCN)C(=O)N[C@@H](CCCCN)C(=O)O)C(C)C [Clone S137],0
6,CC(C)[C@H](NC(=O)[C@H](Cc1ccccc1)NC(=O)[C@H](Cc1c[nH]c2ccccc12)NC(=O)[C@H](CC(=O)O)NC(=O)[C@H](Cc1ccc(O)cc1)NC(=O)[C@H](Cc1ccccc1)NC(=O)[C@H](CC(N)=O)NC(=O)[C@H](CCC(=O)O)NC(=O)[C@H](Cc1c[nH]cn1)NC(=O)[C@@H](N)Cc1ccccc1)C(=O)N[C@@H](CCCNC(=N)N)C(=O)N[C@@H](CCC(N)=O)C(=O)N[C@H](C(=O)N[C@@H](CO)C(=O)N[C@@H](CCCCN)C(=O)N[C@@H](CCCCN)C(=O)NCC[C@H](NC(=O)[C@H](CCCCN)NC(=O)[C@H](CCCCN)NC(=O)[C@H](CO)NC(=O)[C@@H](NC(=O)[C@H](CCC(N)=O)NC(=O)[C@H](CCCNC(=N)N)NC(=O)[C@@H](NC(=O)[C@H](Cc1ccccc1)NC(=O)[C@H](Cc1c[nH]c2ccccc12)NC(=O)[C@H](CC(=O)O)NC(=O)[C@H](Cc1ccc(O)cc1)NC(=O)[C@H](Cc1ccccc1)NC(=O)[C@H](CC(N)=O)NC(=O)[C@H](CCC(=O)O)NC(=O)[C@H](Cc1c[nH]cn1)NC(=O)[C@@H](N)Cc1ccccc1)C(C)C)C(C)C)C(N)=O)C(C)C [Clone S152],+
7,CC(C)C[C@H](NC(=O)[C@H](CCC(=O)O)NC(=O)[C@H](C)NC(=O)[C@@H](NC(=O)[C@H](Cc1ccccc1)NC(=O)[C@H](Cc1c[nH]c2ccccc12)NC(=O)[C@H](CC(=O)O)NC(=O)[C@H](Cc1ccc(O)cc1)NC(=O)[C@H](Cc1ccccc1)NC(=O)[C@H](CC(N)=O)NC(=O)[C@H](C)NC(=O)[C@H](CC(N)=O)NC(=O)[C@H](CCCNC(=N)N)NC(=O)[C@H](CCC(N)=O)NC(=O)[C@H](CC(C)C)NC(=O)[C@@H](N)Cc1c[nH]c2ccccc12)C(C)C)C(=O)NCC(=O)O [Clone S237],0
8,CC(C)C[C@H](NC(=O)[C@H](CCC(=O)O)NC(=O)[C@H](C)NC(=O)[C@@H](NC(=O)[C@H](Cc1ccccc1)NC(=O)[C@H](Cc1c[nH]c2ccccc12)NC(=O)[C@H](CC(=O)O)NC(=O)[C@H](Cc1ccc(O)cc1)NC(=O)[C@H](Cc1ccccc1)NC(=O)[C@H](CC(N)=O)NC(=O)[C@H](C)NC(=O)[C@H](CC(N)=O)NC(=O)[C@H](CCCNC(=N)N)NC(=O)[C@H](CCC(N)=O)NC(=O)[C@@H](N)CC(C)C)C(C)C)C(=O)NCC(=O)O [Clone S238],0
9,CC(C)C[C@H](NC(=O)[C@H](CCC(=O)O)NC(=O)[C@H](C)NC(=O)[C@@H](NC(=O)[C@H](Cc1ccccc1)NC(=O)[C@H](Cc1c[nH]c2ccccc12)NC(=O)[C@H](CC(=O)O)NC(=O)[C@H](Cc1ccc(O)cc1)NC(=O)[C@H](Cc1ccccc1)NC(=O)[C@H](CC(N)=O)NC(=O)[C@H](C)NC(=O)[C@H](CC(N)=O)NC(=O)[C@H](CCCNC(=N)N)NC(=O)[C@@H](N)CCC(N)=O)C(C)C)C(=O)NCC(=O)O [Clone S239],0
10,"CC(C)C[C@@H]1NC(=O)[C@H](CO)NC(=O)[C@H](C)NC(=O)CNC(=O)CNC(=O)[C@H](Cc2ccccc2)NC(=O)[C@H](CC(C)C)NC(=O)[C@H](CCC(=O)O)NC(=O)[C@H](CCC(N)=O)NC(=O)[C@H](CC(C)C)NC(=O)[C@H](Cc2ccccc2)NC(=O)[C@@H](NC(=O)[C@H](CC(C)C)NC(=O)[C@@H]2CCCN2)CSSC[C@@H](C(=O)N[C@@H](CO)C(=O)NCC(N)=O)NC(=O)[C@H](Cc2ccc(O)cc2)NC(=O)CNC(=O)CNC1=O [Clone S262] (HELM PEPTIDE1{P.L.C.F.L.Q.E.L.F.G.G.A.S.L.G.G.Y.C.S.G.[am]}$PEPTIDE1,PEPTIDE1,3:R3-18:R3$$$V2.0; N-terminus assumed; bridges inferred)",0
11,"CC[C@H](C)[C@@H]1NC(=O)[C@H](CCC(=O)O)NC(=O)[C@@H](NC(=O)[C@H](Cc2c[nH]c3ccccc23)NC(=O)[C@@H](NC(=O)[C@H](Cc2c[nH]c3ccccc23)NC(=O)[C@H](C)NC(=O)[C@H](CCCNC(=N)N)NC(=O)[C@H](CCC(=O)O)NC(=O)[C@H](CCC(N)=O)NC(=O)[C@H](CCC(=O)O)NC(=O)[C@H](CC(C)C)NC(=O)[C@@H](N)Cc2c[nH]c3ccccc23)[C@@H](C)CC)CSSC[C@@H](C(=O)N[C@@H](CCCNC(=N)N)C(=O)N[C@@H](C)C(N)=O)NC(=O)CNC(=O)[C@H](CO)NC(=O)CNC(=O)[C@H](CCC(N)=O)NC1=O [Clone S263] (HELM PEPTIDE1{W.L.E.Q.E.R.A.W.I.W.C.E.I.Q.G.S.G.C.R.A.[am]}$PEPTIDE1,PEPTIDE1,11:R3-18:R3$$$V2.0; N-terminus assumed; bridges inferred)",0
12,"CC(C)C[C@@H]1NC(=O)[C@H](CCC(=O)O)NC(=O)[C@@H](NC(=O)[C@H](CC(C)C)NC(=O)[C@@H](NC(=O)[C@H](CCCNC(=N)N)NC(=O)[C@H](CC(C)C)NC(=O)[C@@H](N)CC(=O)O)C(C)C)CSSC[C@@H](C(=O)N[C@@H](CO)C(=O)N[C@@H](CCC(=O)O)C(N)=O)NC(=O)[C@H](Cc2ccc(O)cc2)NC(=O)CNC(=O)[C@H](CC(C)C)NC(=O)[C@H](C(C)C)NC(=O)[C@H](Cc2ccc(O)cc2)NC(=O)[C@H](C)NC(=O)CNC(=O)CNC(=O)[C@H](Cc2ccccc2)NC1=O [Clone S281] (HELM PEPTIDE1{D.L.R.V.L.C.E.L.F.G.G.A.Y.V.L.G.Y.C.S.E.[am]}$PEPTIDE1,PEPTIDE1,6:R3-18:R3$$$V2.0; N-terminus assumed; bridges inferred)",0
13,EFHENFYDWFVRQVSEE [Clone S115],+
14,FHENAYDWFVRQVSKK [Clone S219],0
15,FHENFADWFVRQVSKK [Clone S220],0
16,FHENFTDWAVRQVSKK [Clone S223],0
17,FHENFYDWFVRQVSK [Clone S158],+
18,FQSLLEELVWGAPLFRYGTG [Clone S224],0
19,GRVDWLQRNANFYDWFVA [Clone S250],0
20,GRVDWLQRNANFYDWFVAE [Clone S249],0
21,HDPFYSMMKSLLK [Clone S120],0
22,HETFYSMIRSLAK [Clone S117],0
23,HPPLSELKLFLIKK [Clone S124],0
24,HPSTNQMLMKLFK [Clone S123],0
25,HPTSKEIYAKLLK [Clone S122],0
26,IQGWEPFYGWFDDWAQMFEE-NH2 [Clone S264],0
27,NSFYEALRMLSSK [Clone S121],0
28,SLNFYDALQLLAKK [Clone S119],0
29,SSNFYQALMLLS [Clone S129],0

# Biological target: T1, human insulin receptor (HIR) (Homo sapiens, UniProt P06213)
# T1 construct: made in house
# T1 sequence (P06213 28-758 limits assumed): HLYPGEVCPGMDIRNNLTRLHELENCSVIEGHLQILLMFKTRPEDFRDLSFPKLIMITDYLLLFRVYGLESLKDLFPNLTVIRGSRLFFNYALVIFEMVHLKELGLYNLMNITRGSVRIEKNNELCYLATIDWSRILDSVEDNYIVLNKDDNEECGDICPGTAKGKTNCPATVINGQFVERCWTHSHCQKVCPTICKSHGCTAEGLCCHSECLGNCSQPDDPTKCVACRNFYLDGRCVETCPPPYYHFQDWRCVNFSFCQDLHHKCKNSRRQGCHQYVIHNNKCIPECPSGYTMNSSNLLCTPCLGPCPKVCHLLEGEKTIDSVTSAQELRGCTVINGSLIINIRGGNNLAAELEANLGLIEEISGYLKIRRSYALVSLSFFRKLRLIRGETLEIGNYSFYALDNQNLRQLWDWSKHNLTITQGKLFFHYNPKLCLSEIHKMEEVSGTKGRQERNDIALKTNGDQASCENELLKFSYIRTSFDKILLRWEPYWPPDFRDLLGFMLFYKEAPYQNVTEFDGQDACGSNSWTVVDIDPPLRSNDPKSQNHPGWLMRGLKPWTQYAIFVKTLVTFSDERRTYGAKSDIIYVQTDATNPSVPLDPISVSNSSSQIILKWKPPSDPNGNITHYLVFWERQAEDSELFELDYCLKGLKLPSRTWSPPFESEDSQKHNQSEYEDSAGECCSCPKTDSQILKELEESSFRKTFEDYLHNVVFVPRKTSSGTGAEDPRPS
# T1 sequence (P06213 763-1382 limits assumed): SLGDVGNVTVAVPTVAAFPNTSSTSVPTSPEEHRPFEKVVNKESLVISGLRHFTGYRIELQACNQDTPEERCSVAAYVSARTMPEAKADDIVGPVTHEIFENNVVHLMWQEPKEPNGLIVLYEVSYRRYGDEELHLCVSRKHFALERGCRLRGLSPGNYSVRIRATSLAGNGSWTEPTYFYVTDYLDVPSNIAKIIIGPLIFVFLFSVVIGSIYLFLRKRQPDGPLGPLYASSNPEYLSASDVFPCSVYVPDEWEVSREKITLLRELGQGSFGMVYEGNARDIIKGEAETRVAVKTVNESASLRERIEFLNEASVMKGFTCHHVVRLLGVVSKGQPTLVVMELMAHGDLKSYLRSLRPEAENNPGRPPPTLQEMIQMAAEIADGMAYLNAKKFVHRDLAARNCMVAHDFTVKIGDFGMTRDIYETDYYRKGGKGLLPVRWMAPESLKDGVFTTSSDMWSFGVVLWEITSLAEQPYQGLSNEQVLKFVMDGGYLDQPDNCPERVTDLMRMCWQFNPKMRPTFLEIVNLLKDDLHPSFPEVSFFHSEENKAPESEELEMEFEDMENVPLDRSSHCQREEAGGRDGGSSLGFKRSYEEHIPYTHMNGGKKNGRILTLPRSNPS
# Experiment: 125I-insulin competition binding assay on solubilised purified receptor
# Conditions: read-out: Kd (µM) HIR
row,Kd [µM],Compound
1,0.84,CC(C)C[C@H](NC(=O)[C@H](C)NC(=O)[C@H](CO)NC(=O)[C@H](CCC(=O)O)NC(=O)[C@H](Cc1ccccc1)NC(=O)[C@H](Cc1c[nH]c2ccccc12)NC(=O)[C@H](CCC(=O)O)NC(=O)[C@H](Cc1ccc(O)cc1)NC(=O)[C@H](Cc1ccccc1)NC(=O)[C@@H](NC(=O)CNC(=O)CNC(=O)CNC(=O)[C@H](CCCNC(=N)N)NC(=O)[C@@H](N)CCCCN)[C@@H](C)O)C(=O)N[C@@H](CCCNC(=N)N)C(=O)N[C@@H](CCCCN)C(=O)N[C@@H](Cc1c[nH]cn1)C(=O)NCC(=O)N[C@@H](C)C(=O)NCC(=O)N[C@@H](CCCCN)C(=O)N[C@@H](CCCCNC(=O)CCCC[C@@H]1SC[C@@H]2NC(=O)N[C@@H]21)C(N)=O [Clone D110] (H-KRGGGTFYEWFESALRKHGAGKK(Biotin)-NH2)
